# Data published in ChEMBL document CHEMBL3507680, “University of Dundee, Gates Library screen for HepG2 cell viability”.
# Test: Human HepG2 cell viability assay in 384 well format
# Assay type: toxicity, cell-based
# Parameters: dose 125 nL, time 70.5 hour; cytotoxicity at 70.5 h: concentration not given beside the values
# Settings: HepG2 cells, read-out: Inhibition
row,Structure (SMILES),cytotoxicity at 70.5 h [%]
1,Cc1cnc(CN(C)Cc2cccc(OC(F)(F)F)c2)cn1,-3.82
2,CCC1c2ccccc2CCN1CCCS(C)(=O)=O (stereo unspecified),-3.06
3,CN(Cc1cccc(O)c1)Cc1cnn(C)c1,-4.55
4,CC(NCc1cnc(N2CCN(C)CC2)nc1)c1ccc(F)cc1 (stereo unspecified),-6.26
5,CCCN1CCCN(C(=O)c2oc(C)nc2C)CC1,30.9
6,CC(C)OCc1noc(C2CCOC2)n1 (stereo unspecified),-9.31
7,CC(c1nc(C(C)(C)C)no1)S(=O)(=O)CC(=O)N(C)C (stereo unspecified),-6.15
8,CC(c1nc(C(C)(C)C)no1)S(=O)(=O)CC(=O)N1CCCC1 (stereo unspecified),-2.18
9,Cc1cn2nc(Sc3nnnn3C)sc2n1,-4.31
10,COc1ccc(C(=O)Nc2ccc3c(c2)C(=O)NC3)cc1Br,-5.4
11,CNS(=O)(=O)c1ccc(C(=O)Nc2ccc3c(c2)C(=O)NC3)cc1,1.61
12,CC(SCC(=O)N(C)CC(=O)NC1CC1)c1ccc(F)c(F)c1 (stereo unspecified),-10.3
13,CN(CC(=O)NC(C)(C)C)C(=O)C1CC(c2cccc(F)c2)=NO1 (stereo unspecified),4.91
14,CN(Cc1ccc2c(c1)OCO2)C(=O)C1CC(c2cccc(F)c2)=NO1 (stereo unspecified),-9.63
15,CCn1c(C)nnc1Sc1nn2cc(C)nc2s1,-5.8
16,CCCNC(=O)C1CCN(CC(O)c2ccccc2)CC1 (stereo unspecified),-10.6
17,CCOc1ccc(C#N)cc1NC(=O)N1CCC(n2cncn2)CC1,5.95
18,COc1cccc(-c2nnn(C3CCN(CC(F)(F)F)C3=O)n2)c1 (stereo unspecified),0.471
19,O=C(c1cc(F)ccc1O)N1CCN(C(=O)C2CCC2)CC1,-3.26
20,O=C(c1cc(F)ccc1O)N1CCN(C2CCOCC2)CC1,0.856
21,CC(C)(C)S(=O)(=O)c1ccc(N2CCC(n3cncn3)CC2)cn1,14.6
22,CC(C)(C)S(=O)(=O)c1ccc(N2CCC(n3cccn3)CC2)cn1,6.49
23,CC(C)(C)S(=O)(=O)c1ccc(N2CCC(n3ccnc3)CC2)cn1,-12.2
24,CCOC(=O)CN(C)Cc1cnc(C)s1,7.03
25,CC(C)OCc1noc(C2CCCOC2)n1 (stereo unspecified),-10.6

row,Structure (SMILES),cytotoxicity at 70.5 h [%]
1,CN1CC(NC(=O)CCOc2cccc(Cl)c2)CC1=O (stereo unspecified),17.2
2,CC(C)C(=O)N(C)Cc1nnc2n1CCCCC2,25
3,CN(C(=O)Cc1coc(-c2ccccc2)n1)C1(C#N)CCC1,1.14
4,CC(C)OCCCNC(=O)NC(C)c1ccc(-n2cncn2)cc1 (stereo unspecified),0.395
5,CCOCCCNC(=O)NC(C)c1ccc(-n2cncn2)cc1 (stereo unspecified),-5.55
6,CC(=O)c1cccc(S(=O)(=O)N2CCC(c3noc(C)n3)CC2)c1,-9.37
7,Cc1ccc(OCCC(=O)NC2CC(=O)N(C)C2)cc1C (stereo unspecified),-6.43
8,CC(C)CC(NS(C)(=O)=O)C(=O)N(C)Cc1nnc2n1CCC2 (stereo unspecified),-8.38
9,O=C(Nc1ccccc1)c1ccc(NCc2nccs2)nn1,-10
10,Cc1cnn(CCNC(C)C(=O)NCCc2cccs2)c1 (stereo unspecified),23
11,O=C(Nc1ccccc1)c1ccc(NCc2ccccc2CO)nn1,-6.13
12,CS(=O)(=O)CCSCc1cccc2cccnc12,-4.91
13,CCc1cnc(N2CCN(Cc3ccon3)CC2)s1,-6.28
14,CC(=O)Nc1ccc(CNC2CCCSC2)cc1 (stereo unspecified),23.3
15,CN(C(=O)Cc1coc(-c2cccs2)n1)C1(C#N)CCC1,-6.29
16,CC(C)OCCn1nnnc1Cc1ccc(Br)cc1,-5.01
17,COC(=O)CC1CN(Cc2c(Cl)ccc3cccnc23)CCO1 (stereo unspecified),-12.3
18,CC(CNC(=O)NCc1ccco1)CC1(C)OCCO1 (stereo unspecified),15.5
19,CC(CNC(=O)NCc1ccc2c(c1)OCO2)CC1(C)OCCO1 (stereo unspecified),-5.24
20,CCc1nsc(N2CCN(Cc3ccno3)CC2)n1,-0.144
21,CC(O)CN1CCC(CN(C)Cc2cc(C#N)ccc2F)CC1 (stereo unspecified),-7.5
22,Clc1cccc(CNc2cnn(CCN3CCCCC3)c2)c1,-11.9
23,CC1CN(C(=O)NCCc2nc(C(C)C)no2)CCO1 (stereo unspecified),10.3
24,Cc1nn(C)c2ncc(CN3CCCCCC3)cc12,-5.07
25,CCN1CCOC(CNCc2c(Cl)nc3ccccn23)C1 (stereo unspecified),-21.6

row,Structure (SMILES),cytotoxicity at 70.5 h [%]
1,CCCn1nnnc1COc1cc(OC)ccc1C(N)=O,-7.31
2,Cc1noc(C)c1CN(C)Cn1c(=O)oc2ccccc21,39.4
3,O=C(COc1ccccc1)N1CCCC1c1ccc[nH]1 (stereo unspecified),-17.9
4,Cc1noc(C)c1CN(C)C(=O)Cn1c(=O)n(C)c2ccccc21,-15.9
5,CC(C)C(C(=O)N1CCN(Cc2ccncc2)CC1)n1cncn1 (stereo unspecified),-9.68
6,CCC(C)NC(=O)Cc1c(C)nc2c(c1C)c(=O)[nH]n2C (stereo unspecified),-8.46
7,Cc1cc(C)n(C2CN(Cc3noc(-c4ccccc4)n3)C2)n1,-4.76
8,CCS(=O)(=O)CCNC(=O)c1ccc(-c2ccc(C)cc2)cc1F,-6.67
9,CC(C)(C)OC(=O)CNC(=O)CCc1nnc(-c2ccsc2)o1,0.905
10,COc1ccc(-c2nc(CN3CC(n4cc(C)cn4)C3)no2)cc1,-4.24
11,O=C(NC1(c2cccc(F)c2)CCOCC1)c1ccccn1,12
12,NC(=O)CSCC(=O)N1CCc2cc(Cl)cc(Cl)c2C1,-10.4
13,Cc1cc(OCC(=O)NC(C)c2ccc(N3CCOCC3)cc2)no1 (stereo unspecified),-3.83
14,CCc1ccc(C2CCCCCN2Cc2nc(CCOC)no2)o1 (stereo unspecified),-6.85
15,Clc1ccc(CN2CCCC(Cn3cncn3)C2)c2ncccc12 (stereo unspecified),-8.25
16,CCc1noc(CN(C)Cc2ccc(N3CCCCC3)cc2)n1,-7.61
17,CC(C)c1noc(CN(Cc2cccs2)C2CC2)n1,6.94
18,COCCN(C)Cc1ccc(OC)c(OC(F)F)c1,-5.27
19,COCCC(=O)Nc1ccnc(Oc2ccccc2)c1,2.24
20,O=C(COc1cccc2c1CCC2=O)NCCOc1ccccc1,15.4
21,COc1ccc(NC(=O)CNc2ccc(Br)cc2F)cc1,-1.21
22,CCN(CC)C(=O)c1ccc(NC(=O)CNc2ccc(Br)cc2F)cc1,4.87
23,Cc1cc(=O)n2ncnc2n1CC(O)c1ccccc1Cl (stereo unspecified),-3.15
24,Cc1ccc(S(=O)(=O)Nc2ccc(-n3cccc3C(=O)O)c(C)c2)s1,-3.61
25,Cc1ccc(-c2cc(C(=O)NC(C)C(=O)N3CCCCC3)on2)cc1 (stereo unspecified),5.48

row,Structure (SMILES),cytotoxicity at 70.5 h [%]
1,Cc1ccccc1-c1cc(NC(=O)CC(C)C)n(CCO)n1,5.13
2,CC(=O)Nc1nc(CN2CCCCC2Cn2cccn2)cs1 (stereo unspecified),6.38
3,CCCNC(=O)Nc1cccc2c1CCN(S(C)(=O)=O)C2,-1.5
4,Cc1c(C(=O)NCC2CCCO2)nnn1-c1cccc2c1CCN(C)C2 (stereo unspecified),19.8
5,Cc1cccc(CNC(=O)CNc2cc(CO)ccc2Cl)c1,-3.8
6,CCN(C(=O)CCCOc1ccccc1F)c1ccncc1,1.58
7,CN(C)c1cc(C(=O)NCCc2nnc(-c3ccco3)[nH]2)ccn1,-5.78
8,NC(=O)Nc1cccc(Oc2ccccn2)c1,-4.42
9,Cn1ccnc1CN(CCCO)C1CCCc2ccccc21 (stereo unspecified),7.41
10,OCc1ccc(Cl)c(NCc2cccnc2)c1,19.4
11,O=C(C1CC1)N1CCCC1C1CCN(Cc2ccccc2)CC1 (stereo unspecified),1.42
12,c1coc(-c2nnc(CN3CCCC(CN4CCCCCC4)C3)o2)c1 (stereo unspecified),-1.85
13,Cn1ccnc1CNC(=O)N(CCCO)C1CCCc2ccccc21 (stereo unspecified),21.5
14,CN(C)C(=O)Cc1nc(CN2CCOC(Cn3cccn3)C2)cs1 (stereo unspecified),1.45
15,CC(C)C(=O)N1CCN(Cc2csc(-c3ncccn3)n2)CC1,-2.05
16,Cc1nc(C)n(CC2CCCN(Cc3nnc(C(C)(C)C)o3)C2)n1 (stereo unspecified),-0.371
17,N#Cc1ncn(CCC(=O)Nc2c(Cl)cccc2Cl)n1,-6.06
18,Cc1ccc(NC(=O)N2CCOC(C)C2)cc1Cl (stereo unspecified),-7.15
19,CC(C)(C)NC(=O)CN1CCN(C(=O)Nc2ccc(F)cc2F)CC1,9.46
20,Cc1nnc(NC(=O)NC2CCOc3ccccc32)s1 (stereo unspecified),-9.45
21,COc1cccc(CN(C)C(=O)CCC(=O)c2ccc(Cl)cc2)c1OC,-10.4
22,COCCCN1CCC(NC(=O)C(C)C)CC1,7.82
23,CCNC(=O)c1ccoc1CN1c2ccccc2CC1C (stereo unspecified),-5.21
24,Cc1noc(C)c1CNC(=O)N1CCC(CO)CC1,-3.59
25,Cc1ccc(C(=O)N2CCSCC2)cc1NC(=O)Cn1cncn1,-6.81

row,Structure (SMILES),cytotoxicity at 70.5 h [%]
1,Cc1cccc(-n2cc(C(=O)N3CCn4c(C)nnc4C3)nn2)c1,9.22
2,Cc1cc(-c2nnn(CCNS(C)(=O)=O)n2)ccc1F,1.75
3,O=C(NCC(O)c1cccc(F)c1)c1cccnc1O (stereo unspecified),-5.45
4,Cc1ccc(OCC(=O)NCC(C)C)nc1,-3.31
5,N#Cc1ncn(CC(=O)Nc2cc(Cl)ccc2F)n1,-3.28
6,CSc1ccc(NS(=O)(=O)c2cnn(C)c2)cn1,-1.76
7,N#CCSCCCN1CCN(C(=O)c2ccc(Cl)cc2)CC1,6.83
8,Cc1ccc(C(=O)N2CCN(CCCSCC#N)CC2)o1,-3.91
9,CCN(C(c1cccnc1)c1ccc2c(c1)CCO2)S(C)(=O)=O (stereo unspecified),-4.03
10,CCN1CCCN(C(=O)c2cnc(OC(C)C)c(Cl)c2)CC1,9.31
11,CCc1nnc(CNCC2CCCN2c2cccnn2)o1 (stereo unspecified),-3.72
12,CC(C)Cc1noc(CN2CCN(C(=O)c3ccco3)CC2)n1,-9.38
13,Cc1cnn(CC2CCCN2C(=O)CCCc2nc(C)no2)c1 (stereo unspecified),32.9
14,CCc1csc(C2CCCN(C(=O)c3ccnc(N(C)C)c3)C2)n1 (stereo unspecified),19.9
15,CCc1nnc(C(C)N2CCCN(C(=O)Oc3ccccc3)CC2)o1 (stereo unspecified),2.06
16,CCC(=O)Nc1ccc(C(C)NC(=O)COCCOC)cc1 (stereo unspecified),3.18
17,CN(C)C(=O)N1CCN(CCn2nc3ccccn3c2=O)CC1,-2.81
18,CCOCC1CN(Cc2cnn(C)c2)Cc2ncn(C)c21 (stereo unspecified),-9.79
19,Cc1cccc(-c2c[nH]c(C3CCCN3)n2)c1 (stereo unspecified),-7.37
20,O=C(c1ccoc1)N1CC[C@@H](N2CCOCC2)[C@@H]1Cc1ccccc1,-10.9
21,CCOCC1CN(Cc2cnn(C)c2)Cc2c1cnn2CC (stereo unspecified),7.67
